Experiments:
[1] = biological target: Carbonic anhydrase 2 (Homo sapiens, UniProt P00918)
[2] = biological target: T1, Beta-carbonic anhydrase 1 (Mycobacterium tuberculosis, UniProt P9WPJ7)
T1 sequence (P9WPJ7 whole entry): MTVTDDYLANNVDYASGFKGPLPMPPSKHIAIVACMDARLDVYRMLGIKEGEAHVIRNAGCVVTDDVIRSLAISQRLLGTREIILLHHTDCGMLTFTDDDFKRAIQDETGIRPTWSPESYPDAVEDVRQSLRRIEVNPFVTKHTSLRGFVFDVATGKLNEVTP

[3] = biological target: Carbonic anhydrase 1 (Homo sapiens, UniProt P00915)
Chain of Carbonic anhydrase 1 (P00915 whole entry): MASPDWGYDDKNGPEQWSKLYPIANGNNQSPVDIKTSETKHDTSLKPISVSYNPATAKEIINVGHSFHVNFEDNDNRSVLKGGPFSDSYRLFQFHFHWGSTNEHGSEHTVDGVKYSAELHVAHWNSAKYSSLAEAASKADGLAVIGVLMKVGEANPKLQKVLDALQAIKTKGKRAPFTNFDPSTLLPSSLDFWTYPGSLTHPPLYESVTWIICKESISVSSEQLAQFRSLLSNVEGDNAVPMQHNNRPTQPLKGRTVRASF

Row | Compound | Ki [1] | Ki [2] | Ki [3]
1 | NC(=O)c1[nH]c2ccc(S(N)(=O)=O)cc2c1-c1ccccc1 | 31 nM | 7.5 nM | 48 nM
2 | NS(=O)(=O)c1ccc(S(=O)(=O)Nc2cccc3c(Cl)c[nH]c23)cc1 | – | – | 97 nM
